From patent US10363257B2 (ZENITH EPIGENETICS LTD., priority 2013, dated 2019) come the findings set out here.

Molecules are shown by their SMILES. pIC50: −log10 of the molar value.

One assay concerns c-myc. In words: Inhibition of c-myc expression (mRNA, real-time PCR) in MV4-11 cells. The format is cell-based. The conditions noted are these: Human AML MV4-11 cells, 3 h, cMYC mRNA. An outline of the steps:
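MV4-11 cells treated 3 h at 37° C with increasing compound concentrations or 0.1% DMSO, in triplicate. cMYC mRNA quantified by one-step TaqMan real-time PCR, Ct normalized to internal control (Cyclophilin primers used), fold expression relative to control.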
A general note: In qPCR the cycle at which signal appears reflects the starting amount.

The subject of the next assay is hIL-17 mRNA. In words: Inhibition of hIL-17 mRNA transcription in OKT3-stimulated peripheral blood mononuclear cells. The format is cell-based. The conditions noted are these: PBMC, human peripheral blood mononuclear cells, OKT3 antibody, 6 h, read-out: IL-17 activity. On the procedure: In this example, hIL-17 mRNA in human peripheral blood mononuclear cells was quantitated to measure the transcriptional inhibition of hIL-17 when treated with a compound of the invention.
Human peripheral blood mononuclear cells were plated (2.0×10^5 cells per well) in a 96-well plate in 45 μL OpTimizer T Cell expansion media containing 20 ng/ml IL-2 and penicillin/streptomycin. The cells were treated with the test compound (45 μL at 2× concentration), and then the cells were incubated at 37° C. for 1 h before addition of 10× stock OKT3 antibody at 10 μg/ml in media. Cells were incubated at 37° C. for 6 h before the cells were harvested. At time of harvest, cells were centrifuged (800 rpm, 5 min). Spent media was removed and cell lysis solution (70 μL) was added to the cells in each well and incubated for 5-10 min at room temperature, to allow for complete cell lysis and detachment. mRNA was then prepared using the “mRNA Catcher PLUS plate” (Invitrogen), according to the protocol supplied. After the last wash, as much wash buffer as possible was aspirated without allowing the wells to dry. Elution buffer (E3, 70 μL) was then added to each well. mRNA was then eluted by incubating the mRNA Catcher PLUS plate with Elution Buffer for 5 min at 68° C. and then immediately placing the plate on ice.
The eluted mRNA isolated was then used in a one-step quantitative RT-PCR reaction, using components of the Ultra Sense Kit together with Applied Biosystems primer-probe mixes. Real-time PCR data was analyzed, normalizing the Ct values for hIL-17 to an internal control, prior to determining the fold induction of each unknown sample, relative to the control.

The target in assay [1] is T1, Brd4 bromodomain 1 (BRD4(1)) (Homo sapiens, UniProt O60885).
T1 construct: made in house; host or cells: E. coli BL21(DE3)
The assay is described as follows: Inhibition of tetra-acetylated histone H4 binding to Brd4 bromodomain 1 (TR-FRET). The conditions noted are these: tetra-acetylated histone H4 peptide, first bromodomain of Brd4. Summed up: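 His-tagged BRD4(1) from E. coli (200 nM) with biotinylated tetra-acetylated H4 peptide (25-50 nM), Eu-cryptate streptavidin and XL665 anti-His, in HEPES pH 7.4/phosphate/KF buffer, 0.2% DMSO. After 2 h at room temperature, TR-FRET 665/620 nm ratio read; IC50 from dose-response curves.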
A general note: TR-FRET usually uses a lanthanide donor and a delayed reading to cut background.

The next assay deals with human AML MV-4-11 cells. The assay is described as follows: Inhibition of cell proliferation in MV4-11 cells (CellTiter Aqueous One). The conditions noted are these: for pIC50: MV4-11, 72 h; for Cell Proliferation activity: 72 h. The assay is classed as cell-based. An outline of the steps:
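Exponentially growing MV-4-11 cells (5×10^4/well) were treated immediately with two-fold dilutions of compound from 30 μM to 0.2 μM, in triplicate, for 72 h at 37° C, 5% CO2. Viability was measured by MTS absorbance at 490 nm after 3–4 h. Proliferation relative to DMSO after blank correction gave IC50.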

Another assay concerns hIL-6 mRNA. In words: Inhibition of hIL-6 mRNA transcription in LPS-stimulated U937 cells. The format is cell-based. The conditions noted are these: Homo sapiens, U-937; PMA-differentiated U937 cells, 1 h pretreatment, 1 ug/mL LPS stimulation, 3 h; read-out: IL-6 activity (Inhibition of hIL-6 mRNA Transcription). Summed up:
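U937 cells differentiated 3 days with 60 ng/mL PMA, pretreated 1 h with compound (0.1% DMSO), then stimulated with 1 ug/mL E. coli LPS for 3 h at 37 °C. hIL-6 mRNA measured by one-step TaqMan RT-qPCR, normalized to cyclophilin. Fold expression relative to control; triplicate wells.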

For the compound `Cc1noc(C)c1-c1cnc2ncn(Cc3ccccc3)c2c1` [Example Compound 5, 4-(1-Benzyl-1H-imidazo[4,5-b]pyridin-6-yl)-3,5-dimethylisoxazole], the pIC50 is 5.52 to 6.52 in the assay with c-myc; 5.52 to 6.52 in the assay on hIL-17 mRNA; not below 6.52 in assay [1]; 5.52 to 6.52 in the assay with human AML MV-4-11 cells; 5.52 to 6.52 in the assay with hIL-6 mRNA.

For `Cc1noc(C)c1-c1cc(N)c2c(c1)ncn2Cc1ccccc1` [Example Compound 8, 1-Benzyl-5-(3,5-dimethylisoxazol-4-yl)-1H-benzo[d]imidazol-7-amine], the pIC50 was 5.52 to 6.52 in the assay with c-myc; 5.52 to 6.52 in the assay on hIL-17 mRNA; not below 6.52 in assay [1]; 5.52 to 6.52 in the assay with human AML MV-4-11 cells; 5.52 to 6.52 in the assay with hIL-6 mRNA.

For `Cc1noc(C)c1-c1cnc2[nH]c(=O)n(Cc3ccccc3)c2c1` [Example Compound 10, 1-Benzyl-6-(3,5-dimethylisoxazol-4-yl)-1H-imidazo[4,5-b]pyridin-2(3H)-one], the pIC50 with c-myc is 5.52 to 6.52; in the assay on hIL-17 mRNA, not below 6.52; in assay [1], not below 6.52; in the assay on human AML MV-4-11 cells, 5.52 to 6.52; in the assay on hIL-6 mRNA, not below 6.52.

For the compound `Cc1noc(C)c1-c1cnc2c(C)nn(Cc3ccc(F)cc3)c2c1` [Example Compound 53, 4-(1-(4-fluorobenzyl)-3-methyl-1H-pyrazolo[4,3-b]pyridin-6-yl)-3,5-dimethylisoxazole], the pIC50 was 4.52 to 5.52 with hIL-17 mRNA, not below 6.52 in assay [1] and 5.52 to 6.52 in the assay on hIL-6 mRNA. The “Cell Proliferation activity” value with human AML MV-4-11 cells is “Not active”.

Take `Cc1noc(C)c1Nc1cnc2nc(C)n(Cc3ccccc3)c2c1` [compound 155, N-(1-benzyl-2-methyl-1H-imidazo[4,5-b]pyridin-6-yl)-3,5-dimethylisoxazol-4-amine]: the results for the pIC50 (with c-myc; in assay [1]; in the assay with hIL-6 mRNA) were 4.52 to 5.52, not below 6.52 and 5.52 to 6.52, respectively. For the same compound, the “Cell Proliferation activity” value in the assay on human AML MV-4-11 cells is “Not active”.

As for `Cc1noc(C)c1-c1ccc2c(c1)N(Cc1ccccc1)CC(=O)N2` [compound 156, 4-benzyl-6-(3,5-dimethylisoxazol-4-yl)-3,4-dihydroquinoxalin-2(1H)-one], the pIC50 in the assay with c-myc is 5.52 to 6.52; in assay [1], not below 6.52; in the assay with human AML MV-4-11 cells it was 5.52 to 6.52; in the assay on hIL-6 mRNA, 5.52 to 6.52.

Consider `Cc1noc(C)c1-c1cc(N)c2nc(NCc3cccnc3)n(Cc3ccccc3)c2c1` [compound 157, 1-benzyl-6-(3,5-dimethylisoxazol-4-yl)-N2-(pyridin-3-ylmethyl)-1H-benzo[d]imidazole-2,4-diamine], for which the pIC50 (in the assay with c-myc; in assay [1]; in the assay on human AML MV-4-11 cells; in the assay on hIL-6 mRNA) was not below 6.52 each time.

For `Cc1noc(C)c1-c1cc(F)c2nc(C)n(Cc3ccccc3)c2c1` [compound 158, 4-(1-benzyl-4-fluoro-2-methyl-1H-benzo[d]imidazol-6-yl)-3,5-dimethylisoxazole], the pIC50 is 5.52 to 6.52 with c-myc, not below 6.52 in assay [1], 5.52 to 6.52 with human AML MV-4-11 cells and 5.52 to 6.52 with hIL-6 mRNA.

As for `Cc1noc(C)c1-c1cnc2nc(N3CCOCC3)n(CC3CCCC3)c2c1` [compound 208, 4-(1-(cyclopentylmethyl)-6-(3,5-dimethylisoxazol-4-yl)-1H-imidazo[4,5-b]pyridin-2-yl)morpholine], the pIC50 is not below 6.52 in the assay on c-myc, not below 6.52 in assay [1], 5.52 to 6.52 in the assay with human AML MV-4-11 cells and not below 6.52 in the assay on hIL-6 mRNA.

`Cc1noc(C)c1-c1cnc2nc(N3CCC3)n(CC3CCCC3)c2c1` [compound 209, 4-(2-(azetidin-1-yl)-1-(cyclopentylmethyl)-1H-imidazo[4,5-b]pyridin-6-yl)-3,5-dimethylisoxazole]: the pIC50 is 5.52 to 6.52 in the assay on c-myc, not below 6.52 in assay [1], not below 6.52 in the assay with human AML MV-4-11 cells and not below 6.52 in the assay with hIL-6 mRNA.

For the compound `Cc1noc(C)c1-c1cnc2nc(N3CCC3)n(CC3CCC3)c2c1` [compound 211, 4-(2-(azetidin-1-yl)-1-(cyclobutylmethyl)-1H-imidazo[4,5-b]pyridin-6-yl)-3,5-dimethylisoxazole], the pIC50 in the assay on c-myc was 5.52 to 6.52; in assay [1], not below 6.52; in the assay with human AML MV-4-11 cells, not below 6.52; with hIL-6 mRNA, not below 6.52.

As for `Cc1noc(C)c1-c1cnc2nc(NC3CCCC3)n(Cc3ccccc3)c2c1` [compound 214, 1-benzyl-N-cyclopentyl-6-(3,5-dimethylisoxazol-4-yl)-1H-imidazo[4,5-b]pyridin-2-amine], the pIC50 (in the assay with c-myc; in assay [1]; in the assay on human AML MV-4-11 cells; with hIL-6 mRNA) was not below 6.52 each time.

As to `Cc1noc(C)c1-c1cnc2nc(NCCN3CCOCC3)n(Cc3ccccc3)c2c1` [compound 215, 1-benzyl-6-(3,5-dimethylisoxazol-4-yl)-N-(2-morpholinoethyl)-1H-imidazo[4,5-b]pyridin-2-amine], the pIC50 with c-myc was not below 6.52; in assay [1], not below 6.52; in the assay on human AML MV-4-11 cells, 5.52 to 6.52; in the assay on hIL-6 mRNA, not below 6.52.

With `Cc1noc(C)c1-c1cnc2nc(N)n(Cc3ccccc3)c2c1` [compound 216, 1-benzyl-6-(3,5-dimethylisoxazol-4-yl)-1H-imidazo[4,5-b]pyridin-2-amine], the pIC50 with c-myc was 5.52 to 6.52; in assay [1], not below 6.52; with human AML MV-4-11 cells, not below 6.52; in the assay on hIL-6 mRNA it was not below 6.52.

Take `Cc1noc(C)c1-c1cnc2nc(NCc3cccc(C#N)c3)n(Cc3ccccc3)c2c1` [compound 217, 3-(((1-benzyl-6-(3,5-dimethylisoxazol-4-yl)-1H-imidazo[4,5-b]pyridin-2-yl)amino)methyl)benzonitrile]: the pIC50 in the assay with c-myc was not below 6.52; in assay [1] it was not below 6.52; in the assay on human AML MV-4-11 cells, 5.52 to 6.52; with hIL-6 mRNA, not below 6.52.

Take `Cc1noc(C)c1-c1cnc2[nH]c(=O)n([C@H](C)c3ccccc3)c2c1` [compound 218, (R)-6-(3,5-dimethylisoxazol-4-yl)-1-(1-phenylethyl)-1H-imidazo[4,5-b]pyridin-2(3H)-one]: the pIC50 with c-myc is 5.52 to 6.52; in assay [1], not below 6.52; with human AML MV-4-11 cells, 4.52 to 5.52; in the assay with hIL-6 mRNA it was 5.52 to 6.52.

Turning to `Cc1noc(C)c1-c1cnc2nc(C3CCOCC3)n(Cc3ccccc3)c2c1` [compound 220, 4-(1-benzyl-2-(tetrahydro-2H-pyran-4-yl)-1H-imidazo[4,5-b]pyridin-6-yl)-3,5-dimethylisoxazole], the pIC50 was 4.52 to 5.52 with c-myc, not below 6.52 in assay [1], 5.52 to 6.52 in the assay on human AML MV-4-11 cells and 5.52 to 6.52 in the assay with hIL-6 mRNA.

Consider `CNC(=O)c1nc2ncc(-c3c(C)noc3C)cc2n1Cc1ccccc1` [compound 221, 1-benzyl-6-(3,5-dimethylisoxazol-4-yl)-N-methyl-1H-imidazo[4,5-b]pyridine-2-carboxamide], for which the pIC50 is 5.52 to 6.52 with c-myc, not below 6.52 in assay [1], 5.52 to 6.52 with human AML MV-4-11 cells and 5.52 to 6.52 with hIL-6 mRNA.

`Cc1noc(C)c1-c1cnc2nc(NC3CCOCC3)n(CC3CCC3)c2c1` [compound 223, 1-(cyclobutylmethyl)-6-(3,5-dimethylisoxazol-4-yl)-N-(tetrahydro-2H-pyran-4-yl)-1H-imidazo[4,5-b]pyridin-2-amine]: the pIC50 was not below 6.52 with c-myc, not below 6.52 in assay [1], 5.52 to 6.52 in the assay with human AML MV-4-11 cells and 5.52 to 6.52 with hIL-6 mRNA.
